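Grown in 96-well plates, cells were treated for 48 hours with each compound at five concentrations. Insufficient inhibition: endpoint recorded as highest concentration tested. Here, GI50 denotes the concentration required for 50% inhibition of growth. TGI: concentration producing complete growth inhibition.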
Assays:
Assay in all cases: DTP human tumour cell line panel, 48 h
ACHN renal = tested on: ACHN renal
CAKI-1 renal = tested on: CAKI-1 renal
HL-60(TB) leukemia = tested on: HL-60(TB) leukemia
HS 578T breast = tested on: HS 578T breast
MOLT-4 leukemia = tested on: MOLT-4 leukemia
SK-MEL-5 melanoma = tested on: SK-MEL-5 melanoma
SK-OV-3 ovarian = tested on: SK-OV-3 ovarian
SN12C renal = tested on: SN12C renal
SNB-19 CNS = tested on: SNB-19 CNS
T-47D breast = tested on: T-47D breast

Compound	GI50 (ACHN renal)	TGI (ACHN renal)	GI50 (CAKI-1 renal)	TGI (CAKI-1 renal)	GI50 (HL-60(TB) leukemia)	TGI (HL-60(TB) leukemia)	GI50 (HS 578T breast)	TGI (HS 578T breast)	GI50 (MOLT-4 leukemia)	TGI (MOLT-4 leukemia)	GI50 (SK-MEL-5 melanoma)	TGI (SK-MEL-5 melanoma)	GI50 (SK-OV-3 ovarian)	TGI (SK-OV-3 ovarian)	GI50 (SN12C renal)	TGI (SN12C renal)	GI50 (SNB-19 CNS)	TGI (SNB-19 CNS)	GI50 (T-47D breast)	TGI (T-47D breast)
O=c1ncc(-c2ccc(C(F)(F)F)cc2)c(NC2CCCCCC2)[nH]1	30.9 µM	> 100 µM	18.7 µM	48.4 µM	21000 nM	46.4 µM	17900 nM	53.9 µM	17900 nM	43.1 µM	16.6 µM	30.6 µM	27300 nM	64.3 µM	16.2 µM	33 µM	24.2 µM	80.8 µM	17.2 µM	57.8 µM
COc1cc2c(c(OC)c1OC)-c1ccc([O-])c(=O)cc1[C@@H](NC(C)=O)CC2.COc1cc2c(c(OC)c1OC)-c1ccc([O-])c(=O)cc1[C@@H](NC(C)=O)CC2.[Cu+2]	7.83 µM	> 100 µM	4.96 µM	63.1 µM	2050 nM	4.82 µM	1940 nM	> 100 µM	3420 nM	21.1 µM	2.94 µM	12 µM	2950 nM	> 100 µM	4.97 µM	> 100 µM	14.7 µM	> 100 µM	7.95 µM	> 100 µM
CC(C)(Cl)CCC1=C(Cl)C(=O)c2ccccc2C1=O	1.65 µM	3.03 µM	1.87 µM	3.46 µM	1330 nM	3.84 µM	3260 nM	45.8 µM	1910 nM	6.04 µM	1.78 µM	3.57 µM	5480 nM	17.6 µM	3.64 µM	13.5 µM	4.22 µM	17.1 µM	1.97 µM	5.52 µM
COc1ccc(-c2cc(-c3ccc(Nc4nc(Nc5ccc(Cl)cc5)nc(Nc5ccc(Cl)cc5)n4)cc3)no2)cc1	27.6 µM	> 100 µM	15.5 µM	62.3 µM	1870 nM	12.1 µM	20300 nM	> 100 µM	1390 nM	5.44 µM	5.08 µM	20.3 µM	25800 nM	79.4 µM	20.2 µM	> 100 µM	27.4 µM	> 100 µM	6.26 µM	> 100 µM
Nc1nc(N)c2nc(CNc3ccc(C(=O)CC(CCC(=O)O)C(=O)O)cc3)cnc2n1 (centres undefined)	0.162 µM	> 100 µM	0.0412 µM	> 100 µM	< 18 nM	> 100 µM	> 100000 nM	> 100 µM	125 nM	> 100 µM	0.45 µM	> 100 µM		> 100 µM	0.18 µM	> 100 µM	0.627 µM	> 100 µM	> 100 µM	> 100 µM
COc1ccc(-c2coc3ncnc(N)c23)cc1	> 25 µM	> 25 µM	> 25 µM	> 25 µM	> 25000 nM	> 25 µM	> 25000 nM	> 25 µM	> 25000 nM	> 25 µM	> 25 µM	> 25 µM	> 25000 nM	> 25 µM	> 25 µM	> 25 µM	> 25 µM	> 25 µM	> 25 µM	> 25 µM
O=C1C2CC3C(CC2C(=O)[N]1[Sn]([c]1ccccc1)([c]1ccccc1)[c]1ccccc1)C1(Cl)C(Cl)=C(Cl)C3(Cl)C1(Cl)Cl (centres undefined)	0.112 µM	0.243 µM	0.12 µM	0.275 µM	176 nM	0.497 µM	204 nM	1.11 µM	82.7 nM	0.546 µM	0.145 µM	0.301 µM	137 nM	0.353 µM	0.17 µM	0.448 µM	0.163 µM	0.344 µM	0.0393 µM	0.22 µM
O=c1[nH]cnc2c(C3OC(CO)C(O)C3O)[nH]nc12 (centres undefined)		> 100 µM		> 100 µM		> 100 µM		> 100 µM		81 µM		> 100 µM		28.3 µM		> 100 µM		> 100 µM		> 100 µM
COc1ccc(OC)c(/C=C/c2nnc(Nc3ccc(Cl)cc3)o2)c1	3.29 µM	19.9 µM	6.02 µM	> 100 µM	> 100000 nM	> 100 µM	2710 nM	8.01 µM	> 100000 nM	> 100 µM	7.17 µM	> 100 µM	2790 nM	7.85 µM	4.21 µM	> 100 µM	13.8 µM	> 100 µM	2.54 µM	> 100 µM
COc1cc(N2CCC(N3CCN(C)CC3)CC2)ccc1Nc1ncc(Cl)c(Nc2ccccc2P(C)(C)=O)n1	1.12 µM	9.65 µM	1.99 µM	9.58 µM	1670 nM	> 35.6 µM	2460 nM	24.1 µM	4580 nM	> 100 µM	11.9 µM	> 100 µM	992 nM	5 µM	1.03 µM	> 100 µM	3.09 µM	> 100 µM	> 100 µM	> 100 µM

Reference: PubChem BioAssay (NCI)
